The source of these data is patent US5912259A, “Method for treating and preventing neurodegenerative disorders by administering a thiazolidinone” (Warner-Lambert Company, priority 1998, dated 1999).

The subject of one data set is 5-lipoxygenase. As to conditions: described in U.S. Pat. No. 5,143,928; cited from earlier work.
Another data set concerns cyclooxygenase. As to conditions: described in U.S. Pat. No. 5,143,928; cited from earlier work.
The next data set concerns NMDA-induced injury. The protocol: Intrastriatal injections of NMDA (15 nmol/0.5 μL) were performed in male and female Sprague-Dawley rat pups (Charles River Laboratory, Portage, Mich.) on Postnatal Day (PND) 7. The animals were anesthetized with ether, and the calvarium was exposed by a midline incision through the skin. The rat pups were placed in a plaster of paris mold that was secured to a small animal stereotaxic instrument (Kopf Instruments). NMDA (Sigma) was dissolved in 0.1 M phosphate-buffered saline (PBS) adjusted to pH 7.4 with 1 N NaOH. Injections of NMDA ([…]) were placed in the middle of the right posterior corpus striatum (coordinates relative to Bregma; AP -2.0 mm, ML 2.5 mm, at a depth of 4.0 mm from the dura) with a 26-gauge Hamilton syringe. The syringe was left in place for 2 minutes following the injections to limit leakage. Temperature of the animals was kept constant after surgery in a thermostatically controlled environment (HovaBator chick incubator; BFG Corp., Savannah, Ga.) set at 35° C. to 36° C. for 1 hour after the last drug or vehicle injection. Drug solutions were prepared in PBS and injected intraperitoneally (0.05 mL volume) 15 minutes, and 2.25 hours after intrastriatal injection of NMDA. Control animals received equal volumes of PBS.
After surgery, all animals were returned to the mothers for 5 days, and decapitated on PND 12. The brains were removed, the cerebral hemispheres were separated, and wet weights of each hemisphere were determined individually. Differences of the hemispheric weights were compared for each animal using the formula: 100×(C-I/C)=percent damage, a value that indicates the severity of damage of the injected (I) cerebral hemisphere relative to that of the uninjected contralateral (C) hemisphere. Percent protection is used to indicate the relative protection of the neuroprotective compound compared to the control and was calculated as: 100×[1-(% damagetreated /% damagecontrol)]. Data were expressed as mean percent damage±S.E.M. in all groups. Independent t-tests were used for statistical comparisons.

In data set [1] the test system is canine leptomeningeal smooth muscle cells. In words: Amyloid β-peptide-induced cytotoxicity in canine leptomeningeal smooth muscle cells. Format: cell-based, dog. From the text:
Canine smooth muscle cells were isolated from freshly obtained old dog meninges. […] Old dogs have an angiopathy resembling the human condition. Smooth muscle cells are the site of cerebral vessel myopathy occurring in the Dutch form of Alzheimer's disease. The compromise of these cells ultimately leads to a cerebrovascular accident and the death of some humans.
Cells from the meninges were dissociated and kept in culture in 10% fetal calf serum and Dulbecco's minimal essential media with antibiotics for about 1 week on tissue culture plates before use in biochemical studies or transferal to uncoated microscope slides for morphological studies. These smooth muscle cells represent brain blood vessel cells and they can be passaged several times. For inducing cytotoxicity, the cells were treated, in serum-free media, with 10 to 20 μM of amyloid β-peptide that was 42 amino acids long. This peptide corresponds to the human β-peptide sequence. The peptide was dissolved in water immediately before use. This small amount of protein is believed to approximate the concentration of protein observed in postmortem samples in the brains of people who died with Alzheimer's dementia.
Percentages were determined by counting normal and apoptotic nuclei in three fields with five independent measures in a fluorescence microscope.

On to `CC(C)(C)c1cc(C=C2SC(=N)NC2=O)cc(C(C)(C)C)c1O` [5-[[3,5-bis-(1,1-dimethylethyl)-4-hydroxyphenyl]methylene]-2-imino-4-thiazolidinone], for which the “inhibition of 5-lipoxygenase activity” value with 5-lipoxygenase was “inhibits the activities of both cyclooxygenase and 5-lipoxygenase”. The “inhibition of cyclooxygenase activity” value with cyclooxygenase is “inhibits the activities of both cyclooxygenase and 5-lipoxygenase”.
As to `CN[C@H](CC(=O)O)C(=O)O` [NMDA, N-methyl-D-aspartate, reference compound], the “reduction in wet weight of the ipsilateral cerebral hemisphere” value with NMDA-induced injury (NMDA 15 nmol/0.5 μL injected into posterior striatum, i.p. PBS, N=10) worked out at 20.6±1.8%.
For `COc1ccc2c(c1)c(CC(=O)O)c(C)n2C(=O)c1ccc(Cl)cc1` [indomethacin, reference compound], in the data set with NMDA-induced injury (2×30 mg/kg, versus thiazolidinone 2×30 mg/kg), the “protection compared with the thiazolidinone” value was “comparable”.
As for “human protein sequence: amyloid β-peptide that was 42 amino acids long; corresponds to the human β-peptide sequence [reference compound]”, the “earliest statistically significant cytotoxicity” value in data set [1] (10 to 20 μM amyloid β-peptide) came to 24 h. Besides, the “smooth muscle cells killed apoptotically” value in data set [1] (10 to 20 μM, 1-week period, serum-free media, Hoechst 33258, 10080 min) is recorded as 70% to 85.
